Experimental data from patent US5985835A, “Desmopressin for nocturia, incontinence and enuresis” (priority 1997, dated 1999).
Where two headings read alike, the source gives them in different places.

Experiments:
Assay type in all cases: in vivo, human
[1] = test system: elderly persons with increased nocturnal diuresis and decreased ADH secretion; settings: for Diuresis-day: 08-20 h; for Diuresis-night: 20-08 h
Procedure: They had no cardiac or renal disease or diabetes nor were they receiving diuretics. […] Intravenous specimens for the determination of ADH and NAP were frozen at […]. Plasma ADH was measured as arginine vasopressin by radioimmunoassay after extraction with ethanol. The reference range for plasma ADH was 1-5 pmol 1^-1 with an interassay variability of 15.1% at 0.9 pmol 1^-1 and 6.3% at 1.25 pmol 1^-1. Their nocturnal diuresis had decreased during desmopressin treatment on two successive days. After an evaluation of this study the participants were invited to take part in a two-month treatment with desmopressin ([…]®) 40 μg, given as an intranasal aerosol at 20.00 h. […] No changes in their way of life and no restriction in fluid intake was prescribed. The study was carried out after one and two months of treatment and one month after the treatment. […] Mean values of diuresis and micturitions for the 12-hour periods were calculated (Table 2). At these times also a questionnaire with 12 questions about general wellbeing and sleep was filled in (Table 1). The statistical method used a mean value ± standard deviation. The paired numerical data were analyzed with the 2-sided Student's t-test. Non-numerical data were analyzed with the x'-test.

[2] = test system: elderly persons with increased nocturnal diuresis; assay: Pilot study of desmopressin treatment during 48 hours in elderly persons with increased nocturnal diuresis; settings: desmopressin treatment on two successive days
Procedure: ADH levels were studied in a group of elderly persons who had increased nocturnal diuresis. The levels generally were very low and a pilot study was done to determine the effect of desmopressin treatment during a period of 48 hours. Their nocturnal diuresis had decreased during desmopressin treatment on two successive days. After an evaluation of this study the participants were invited to take part in a two-month treatment with desmopressin ([…]®) 40 μg, given as an intranasal aerosol at 20.00 h. The tests consisted of 7 men (aged 72±4 years) and 14 women (aged 73±6 years). No changes in their way of life and no restriction in fluid intake was prescribed. The study was carried out after one and two months of treatment and one month after the treatment.

[3] = test system: patients 60-74 years of age with increased nocturnal frequency due to nocturnal polyuria
Procedure: This example provides efficacy and safety data for oral desmopressin in the treatment of increased frequency due to nocturnal polyuria in the elderly. The study started with a run-in week to establish baseline. An open dose titration, one week each of 0.1 mg, 0.2 mg and 0.4 mg, was performed and followed by a wash-out of 1-2 weeks. Then followed the double-blind, placebo controlled, cross-over part of the study using the dose selected in the dose titration. Placebo and active treatment were given for 14 days each in a randomized order. […] The diagnosis and main criteria for inclusion was a healthy adult patient between 60-74 years of age suffering from increased nocturnal frequency (≥2 nocturnal voids) and a nocturnal urinary output ≥0.9 ml/min. The desmopressin used for the study was […]®, 0.1 mg and 0.2 mg tablets. […] Study duration, including run-in and wash-out periods, was 9 weeks. The criteria for evaluation were: 1. Efficacy: the change in nocturnal diuresis (ml/min), nocturnal micturition episodes and 24-hour diuresis. 2. Safety: changes from baseline in blood pressure, S-sodium, ankle circumference and bodyweight. Incidence of adverse events. The efficacy endpoints during the double blind part of the study were subjected to statistical analysis with an ANOVA model. Sequence effect was tested with the within mean square in the ANOVA. The residuals obtained were plotted against predicted values, normal plots were also produced. The plots were examined for relationship between variance and mean non-normality. Shapiro-Wilks test was performed to assist in these assessments. The difference in effect is presented in 95% confidence intervals for least square means, placebo versus desmopressin. All tests performed used a significance level of α=5%.

[4] = men, 1 month of 40 μg intranasal
[5] = men, 2 months of 40 μg intranasal
[6] = men, 3 months (one month after treatment)
[7] = women, 1 month of 40 μg intranasal
[8] = women, 2 months of 40 μg intranasal
[9] = women, 3 months (one month after treatment)
[10] = oral tablets, titrated dose 0.1-0.4 mg, 14 days, statistically significant

NC(=O)CC[C@@H]1NC(=O)[C@H](Cc2ccccc2)NC(=O)[C@H](Cc2ccc(O)cc2)NC(=O)CCSSC[C@@H](C(=O)N2CCC[C@H]2C(=O)N[C@H](CCCN=C(N)N)C(=O)NCC(N)=O)NC(=O)[C@H](CC(N)=O)NC1=O [Desmopressin, 1-deamino-8-D-arginine vasopressin]
Number of women who reduced nocturnal diuresis by less than 400 ml ([1]; after one month): 9 women | Number of women who reduced nocturnal diuresis by less than 400 ml ([1]; after two months): 7 women | Total 24-hour diuresis ([1]; during the study): more or less unchanged | Decrease in average diuresis during the night, women versus men ([1]; during the treatment): twice as large in women as in men | Diuresis during the daytime ([1]; during treatment): changed insignificantly | Body weight ([1]; in vivo): did not change | Potassium in serum ([1]; in vivo): did not change | Sodium in serum ([1]; in vivo): did not change | Diuresis-day/night ([1]; men, 0 (before treatment)): 0.67 ± 0.20 | No. of micturitions - night ([1]; men, 0 (before treatment)): 4.3 ± 1.2 | Diuresis-day ([1]; men, 0 (before treatment), mean ± SD): 511 ± 85 mL | Diuresis-night ([1]; men, 0 (before treatment)): 763 ± 42 mL | Diuresis-day Deviation from initial value % ([1]; men, 1 month): -9% | Diuresis-day/night ([1]; men, 1 month): 0.83 ± 0.28 | Diuresis-night Deviation from initial value % ([1]; men, 1 month): -21% | No. of micturitions - night ([1]; men, 1 month): 3.8 ± 1.7 | Diuresis-day [1, 4]: 465 ± 72 mL | Diuresis-night [1, 4]: 603 ± 178 mL | Diuresis-day Deviation from initial value % ([1]; men, 2 months): 2% | Diuresis-day/night ([1]; men, 2 months): 0.91 ± 0.29 | Diuresis-night Deviation from initial value % ([1]; men, 2 months): -20% | No. of micturitions - night ([1]; men, 2 months): 4.5 ± 2.0 | Diuresis-day [1, 5]: 524 ± 117 mL | Diuresis-night [1, 5]: 612 ± 174 mL | Diuresis-day Deviation from initial value % [1, 6]: -14% | Diuresis-day/night [1, 6]: 0.66 ± 0.26 | Diuresis-night Deviation from initial value % [1, 6]: -6% | No. of micturitions - night [1, 6]: 4.1 ± 1.6 | Diuresis-day [1, 6]: 441 ± 68 mL | Diuresis-night [1, 6]: 717 ± 168 mL | Reduction of nocturnal diuresis (all the men) ([1]; men, after both one and two months): less than 400 ml | Decrease in nocturnal diuresis from the initial value ([1]; men, after one month): 21% | Decrease in nocturnal diuresis from the initial value ([1]; men, after two months): 20% | Daytime diuresis ([1]; one month after treatment, both men and women): there remained a reduction | Number of nocturnal micturitions ([1]; women versus men): women were affected most positively | Diuresis-day/night ([1]; women, 0 (before treatment)): 0.84 ± 0.40 | Diuresis-day ([1]; women, 0 (before treatment)): 699 ± 368 mL | Diuresis-night ([1]; women, 0 (before treatment)): 892 ± 361 mL | Diuresis-day Deviation from initial value % ([1]; women, 1 month): 6% | Diuresis-day/night ([1]; women, 1 month): 1.46 ± 0.87 | Diuresis-night Deviation from initial value % ([1]; women, 1 month): -36% | Diuresis-day [1, 7]: 746 ± 368 mL | Diuresis-night [1, 7]: 570 ± 172 mL | Diuresis-day Deviation from initial value % ([1]; women, 2 months): -4% | Diuresis-day/night ([1]; women, 2 months): 1.14 ± 0.36 | Diuresis-night Deviation from initial value % ([1]; women, 2 months): -34% | Diuresis-day [1, 8]: 673 ± 257 mL | Diuresis-night [1, 8]: 592 mL | Diuresis-day Deviation from initial value % [1, 9]: -14% | Diuresis-day/night [1, 9]: 0.89 ± 0.36 | Diuresis-night Deviation from initial value % [1, 9]: -17% | Diuresis-day [1, 9]: 587 ± 173 mL | Diuresis-night [1, 9]: 739 ± 260 mL | Decrease in nocturnal diuresis from the initial value ([1]; women, after one month): 36% | Decrease in nocturnal diuresis from the initial value ([1]; women, after two months): 34% | Less nocturnal diuresis than initial value ([1]; women, one month after the last day of treatment): 17% | Nocturnal diuresis [2]: decreased | Tolerability ([3]; in vivo, po): well tolerated | Duration of sleep between voids compared to placebo ([3]; oral tablets, titrated dose 0.1-0.4 mg, 14 days): significantly longer | Nocturnal diuresis compared to placebo [3, 10]: lower | Nocturnal voids compared to placebo [3, 10]: fewer | Nocturnal symptoms ([3]; oral tablets, elderly population): significantly decreases
